# Test results from patent US11419335B2, “N-arylated analogues and uses thereof” (University of Florida Research Foundation, Incorporated, priority 2016, dated 2022).
# Read-outs that look alike come from different tables or passages of the source. Marks after values point to notes of the source that are not given here.
# Experiments:
# [1] = system: methicillin-resistant Staphylococcus aureus MRSA-2 (clinical isolate); experiment: MIC broth microdilution, MRSA-2; type: cell-based
# Experimental: (§1) The minimum inhibitory concentration (MIC) for each tested compound was determined by the broth microdilution method as recommended by the Clinical and Laboratory Standards Institute (CLSI). In a 96-well plate, eleven two-fold serial dilutions of each compound were made in a final volume of 100 μL Luria Broth. Each well was inoculated with ˜10^5 bacterial cells at the initial time of incubation, prepared from a fresh log phase culture (OD600 of 0.5 to 1.0 depending on bacterial strain). The MIC was defined as the lowest concentration of compound that prevented bacterial growth after incubating 16 to 18 hours at 37° C. (MIC values were supported by spectrophotometric readings at OD600). DMSO served as our vehicle and negative control in each microdilution MIC assay. DMSO was serially diluted with a top concentration of 1% v/v.
# as §1, with “for each compound was” for “for each tested compound was”, “Standards Institute (CLSI).^6 In a” for “Standards Institute (CLSI). In a”, “concentration of test compound that” for “concentration of compound that”, “37° C. The concentration range tested for each compound during this study was 0.10 to 100 μM. DMSO served” for “37° C. (MIC values were supported by spectrophotometric readings at OD600). DMSO served”, “1% v/v. All MIC values were obtained from a minimum of three independent experiments.” for “1% v/v.”
# [2] = system: methicillin-resistant Staphylococcus epidermidis (MRSE strain ATCC 35984); experiment: MIC broth microdilution, MRSE 35984; type: cell-based; settings: for MIC S. epidermidis MRSE 35984: Table 1A; for MIC MRSE 35984: Table 4
# Experimental: as §1
# as §1, with “for each compound was” for “for each tested compound was”, “Standards Institute (CLSI).^6 In a” for “Standards Institute (CLSI). In a”, “concentration of test compound that” for “concentration of compound that”, “37° C. The concentration range tested for each compound during this study was 0.10 to 100 μM. DMSO served” for “37° C. (MIC values were supported by spectrophotometric readings at OD600). DMSO served”, “1% v/v. All MIC values were obtained from a minimum of three independent experiments.” for “1% v/v.”
# [3] = system: vancomycin-resistant Enterococcus faecium (VRE strain ATCC 700221); experiment: MIC broth microdilution, VRE 700221; type: cell-based; settings: for MIC E. faecium VRE 700221: Table 1A; for MIC VRE 700221: Table 4
# Experimental: as §1
# as §1, with “for each compound was” for “for each tested compound was”, “Standards Institute (CLSI).^6 In a” for “Standards Institute (CLSI). In a”, “concentration of test compound that” for “concentration of compound that”, “37° C. The concentration range tested for each compound during this study was 0.10 to 100 μM. DMSO served” for “37° C. (MIC values were supported by spectrophotometric readings at OD600). DMSO served”, “1% v/v. All MIC values were obtained from a minimum of three independent experiments.” for “1% v/v.”
# [4] = system: Acinetobacter baumannii (ATCC 1794); experiment: MIC broth microdilution, A. baumannii 1794; type: cell-based; settings: for MIC A. baumannii 1794: Table 1A, in µM; for MIC A. bau. 1794: Table 4
# Experimental: as §1
# as §1, with “for each compound was” for “for each tested compound was”, “Standards Institute (CLSI).^6 In a” for “Standards Institute (CLSI). In a”, “concentration of test compound that” for “concentration of compound that”, “37° C. The concentration range tested for each compound during this study was 0.10 to 100 μM. DMSO served” for “37° C. (MIC values were supported by spectrophotometric readings at OD600). DMSO served”, “1% v/v. All MIC values were obtained from a minimum of three independent experiments.” for “1% v/v.”
# [5] = system: Pseudomonas aeruginosa (PAO1); experiment: MIC broth microdilution, PAO1; type: cell-based
# Experimental: as §1
# as §1, with “for each compound was” for “for each tested compound was”, “Standards Institute (CLSI).^6 In a” for “Standards Institute (CLSI). In a”, “concentration of test compound that” for “concentration of compound that”, “37° C. The concentration range tested for each compound during this study was 0.10 to 100 μM. DMSO served” for “37° C. (MIC values were supported by spectrophotometric readings at OD600). DMSO served”, “1% v/v. All MIC values were obtained from a minimum of three independent experiments.” for “1% v/v.”
# [6] = system: human red blood cells (hRBC); experiment: Hemolysis of red blood cells; type: cell-based
# Experimental: The washing was repeated three times with the buffer. In a 96-well plate, test compounds were added to the buffer from DMSO stocks. […] The plate was then incubated for 1 hour at 37° C. After incubation, the plate was centrifuged for 5 minutes at 3,500 rpm. Then 80 μL of the supernatant was transferred to another 96-well plate and the optical density (OD) was read at 405 nm. DMSO served as our negative control (0% hemolysis) while Triton X served as our positive control (100% hemolysis). […] All reported data correspond to three independent experiments. Ten-point dose-response curves were generated in 96-well plates to determine 50% hemolysis (HC50 values) of red blood cells.
# The washing was repeated three times with the buffer. In 96-well plate, the test compounds were added to the buffer. Then 50 μL of 2% of hRBCs in the buffer were added to the test plate to make the final concentrations ranging from 0.2 to 200 μM of each test compound. The plate was then incubated for 1 hour at 37° C. After incubation, the plate was centrifuged for 5 minutes at 3500 rpm and then 80 μL of the supernatant was transferred to another 96-well plate and the Optical Density (OD) was read at 405 nm. DMSO served as our negative control (0% haemolysis) and Triton X served as our positive control (100% haemolysis). The HC50 (concentration of test compound required to lyse red blood cells by 50%) was calculated by plotting the dose-response curve (not shown) with Graphpad Prism 6.0. All data were obtained from three independent haemolysis experiments.
# MRSA BAA-1707 biofilms = experiment: Calgary Biofilm Device assay (MBC/MBEC), MRSA BAA-1707; type: cell-based, Staphylococcus aureus; settings: Table 2A; CBD assay
# Experimental: (§2) The lid of the Calgary device was then removed, washed and transferred to another 96-well plate containing 2-fold serial dilutions of the test compounds (the “challenge plate”). The total volume of media with compound in each well in the challenge plate is 150 μL. […] The lid was then removed from the challenge plate and MBC/MBEC values were determined using different final assays. […] The MBC values were determined as the concentration giving a lack of visible bacterial growth (i.e., turbidity). […] In select experiments, pegs from the Calgary device were removed from lead biofilm eradicators after final incubation, sonicated for 30 minutes in PBS and plated out to determine biofilm cell killing of lead biofilm-eradicating agents (i.e., colony forming unit per milliliter, CFU/mL).
# (§3) Using a Calgary Biofilm Device, bacterial biofilms are established on pegs suspended to the bottom of a 96-well plate lid. Following biofilm establishment on lid pegs, lids are then transferred to new 96-well plates containing serial dilutions of test compound and allowed to incubate. After compound treatment, 96-well plate lids with pegs are once again transferred to 96-well plates containing fresh media. During this final phase of the assay, viable biofilms will grow and disperse planktonic cells into the media where they will grow and give a turbid well result. Conversely, wells that have no growth are a result of pegs that had eradicated bacterial biofilms. The lowest concentration at which no turbidity is observed is the minimum biofilm eradication concentration (MBEC). Using the Calgary Biofilm Device, both minimum biofilm eradication concentrations and minimum bactericidal concentrations (MBC) for planktonic bacterial can be determined using one assay from a single bacterial culture (FIG. 3A).
# MRSE ATCC 35984 biofilms = experiment: Calgary Biofilm Device assay (MBC/MBEC), MRSE 35984; type: cell-based, Staphylococcus epidermidis; settings: Table 2A; CBD assay
# Experimental: as §2, §3
# VRE ATCC 700221 biofilms = experiment: Calgary Biofilm Device assay (MBC/MBEC), VRE 700221; type: cell-based, Enterococcus faecium; settings: Table 2A; CBD assay
# Experimental: as §2, §3
# MRSA-2 biofilms = experiment: Calgary Biofilm Device assay (MBC/MBEC), MRSA-2; type: cell-based, Staphylococcus aureus; settings: Table 2A; CBD assay
# Experimental: as §2, §3
# MRSA BAA-1707 = experiment: MIC broth microdilution, MRSA BAA-1707; type: cell-based, Staphylococcus aureus; settings: for MIC: read-out: MIC MRSA BAA-1707
# Experimental: as §1, with “The MIC was defined as the lowest concentration of compound that prevented bacterial growth after incubating 16 to 18 hours at 37° C.” left out
# (§4) Each well was inoculated with ˜10^5 bacterial cells at the initial time of incubation, prepared from a fresh log phase culture (OD600 of 0.5 to 1.0 depending on bacterial strain). […] The concentration range tested for each compound during this study was 0.10 to 100 μM. DMSO served as our vehicle and negative control in each microdilution MIC assay. DMSO was serially diluted with a top concentration of 1% v/v. All MIC values were obtained from a minimum of three independent experiments.
# [7] = system: methicillin-sensitive Staphylococcus aureus ATCC 29213; experiment: MIC broth microdilution, S. aureus 29213; type: cell-based
# Experimental: as §1, with “The MIC was defined as the lowest concentration of compound that prevented bacterial growth after incubating 16 to 18 hours at 37° C.” left out
# as §4
# [8] = system: MRSA-1 (clinical isolate); experiment: MIC broth microdilution, MRSA-1; type: cell-based, Staphylococcus aureus
# Experimental: as §1, with “The MIC was defined as the lowest concentration of compound that prevented bacterial growth after incubating 16 to 18 hours at 37° C.” left out
# as §4
# [9] = system: SA-129 (clinical isolate); experiment: MIC broth microdilution, SA-129; type: cell-based, Staphylococcus aureus
# Experimental: as §1, with “The MIC was defined as the lowest concentration of compound that prevented bacterial growth after incubating 16 to 18 hours at 37° C.” left out
# as §4
# [10] = system: SA-147 (clinical isolate); experiment: MIC broth microdilution, SA-147; type: cell-based, Staphylococcus aureus
# Experimental: as §1, with “The MIC was defined as the lowest concentration of compound that prevented bacterial growth after incubating 16 to 18 hours at 37° C.” left out
# as §4
# [11] = system: SA-138 (clinical isolate); experiment: MIC broth microdilution, SA-138; type: cell-based, Staphylococcus aureus
# Experimental: as §1, with “The MIC was defined as the lowest concentration of compound that prevented bacterial growth after incubating 16 to 18 hours at 37° C.” left out
# as §4
# [12] = system: SA-156 (clinical isolate); experiment: MIC broth microdilution, SA-156; type: cell-based, Staphylococcus aureus
# Experimental: as §1, with “The MIC was defined as the lowest concentration of compound that prevented bacterial growth after incubating 16 to 18 hours at 37° C.” left out
# as §4
# MRSA BAA-44 = experiment: MIC broth microdilution, MRSA BAA-44; type: cell-based, Staphylococcus aureus
# Experimental: as §1, with “The MIC was defined as the lowest concentration of compound that prevented bacterial growth after incubating 16 to 18 hours at 37° C.” left out
# as §4
structure (smiles),measurement,setting,value
CCCCCCCCCCCCCCCCn1cc[n+](Cc2ccc(F)cc2C(F)(F)F)c1C.[Br-] [Compound 16],MIC MRSA-2,[1]; Table 1A,3.13 µM
same,MRSA-2 MIC,[1]; Table 2A,3.13 µM
same,MIC MRSA-2,[1]; Table 4,3.13 µM
same,MIC S. epidermidis MRSE 35984,[2],3.13 µM
same,MIC,"[2]; Table 2A, read-out: MRSE 35984 MIC",3.13 µM
same,MIC MRSE 35984,[2],3.13 µM
same,MIC E. faecium VRE 700221,[3],1.56 µM
same,VRE MIC,[3]; Table 2A,1.56 µM
same,MIC VRE 700221,[3],1.56 µM
same,MIC A. baumannii 1794,[4],>100
same,MIC A. bau. 1794,[4],>100 µM
same,MIC PAO1,[5]; Table 1A,> 100 µM
same,MIC PAO1,[5]; Table 4,>100 µM
same,HC50,[6]; Table 1A,10.7 µM
same,RBC HC50,"[6]; Table 4, concentration required to lyse 50% of red blood cells",10.7 µM
same,MRSA BAA-1707 MBC,MRSA BAA-1707 biofilms,62.5^b/ μM
same,MRSA BAA-1707 MBEC,MRSA BAA-1707 biofilms,93.8^a μM
same,MRSE 35984 MBC,MRSE ATCC 35984 biofilms,23.5^a/ μM
same,MRSE 35984 MBEC,MRSE ATCC 35984 biofilms,23.5^a μM
same,VRE MBC,VRE ATCC 700221 biofilms,2.0 µM⁻¹
same,VRE MBEC,VRE ATCC 700221 biofilms,3.0^a μM
same,MRSA-2 MBC,MRSA-2 biofilms,62.5/62.5 μM
same,MRSA-2 MBEC,MRSA-2 biofilms,62.5/62.5 μM
CCCCCCCCCCCCCCCCn1cc[n+](Cc2cccc(OC)c2)c1C.[Br-] [Compound 17],MIC MRSA-2,[1]; Table 1A,1.56 µM
same,MIC MRSA-2,[1]; Table 1B,2.35^a μM
same,MIC MRSA-2,[1]; Table 3,2.35^a μM
same,MIC MRSA-2,[1]; Table 4,2.35a micromolar
same,MIC,MRSA BAA-1707; Table 1B,1.56 µM
same,MIC,MRSA BAA-1707; Table 3,1.56 µM
same,MIC MRSA 1707,MRSA BAA-1707; Table 4,1.56 µM
same,MIC S. epidermidis MRSE 35984,[2],2.35^a
same,MIC MRSE 35984,[2],2.35a micromolar
same,MIC E. faecium VRE 700221,[3],1.56 µM
same,MIC VRE 700221,[3],1.56 µM
same,MIC A. baumannii 1794,[4],>100*
same,MIC A. bau. 1794,[4],>100 µM
same,MIC PAO1,[5]; Table 1A,> 100 µM
same,MIC PAO1,[5]; Table 4,>100 µM
same,MIC,[7]; Table 1B,3.13 µM
same,MIC,[7]; Table 3,3.13 µM
same,MIC MRSA-1,[8]; Table 1B,4.69^a μM
same,MIC MRSA-1,[8]; Table 3,4.69^a μM
same,MIC,[9]; Table 1B,3.13 µM
same,MIC,[9]; Table 3,3.13 µM
same,MIC SA-147,[10]; Table 1B,2.35^a μM
same,MIC SA-147,[10]; Table 3,2.35^a μM
same,MIC,[11]; Table 1B,3.13 µM
same,MIC,[11]; Table 3,3.13 µM
same,MIC SA-156,[12]; Table 1B,2.35^a μM
same,MIC SA-156,[12]; Table 3,2.35^a μM
same,MIC MRSA BAA-44,MRSA BAA-44; Table 1B,2.35^a μM
same,MIC MRSA BAA-44,MRSA BAA-44; Table 3,2.35^a μM
